{"source": "patent US20220054494A1", "about": "“METHODS FOR TREATING BLADDER AND URETHRA DYSFUNCTION AND DISEASE” (University of Pittsburgh - Of the Commonwealth System of …, priority 2019, published 2022)", "assay_type_in_all_cases": "in vivo, rat", "key": {"[1]": {"system": "aged rats", "test": "Von Frey testing of tactile sensitivity, aged rats", "protocol": "Von Frey testing: Forty-eight hours after metabolism studies, tactile sensitivity was measured (once per week for the duration of the study) using von Frey nylon filaments applied to the suprapubic and plantar hindpaw (Stoelting Co., Wood Dale, Ill., USA). The median 50% withdrawal threshold (using up-down method) with positive responses are recorded as sharp retraction, licking/scratching, or vocalization.\nVon Frey testing: Forty-eight h after the metabolism studies, tactile sensitivity was measured once per week using von Frey nylon filaments (Stoelting Co., Wood Dale, Ill., USA) applied to the suprapublic and plantar hindpaw. The median 50% withdrawal threshold (using an up-down method) with positive responses was recorded as sharp retraction, licking/scratching, or vocalization.\nVon Frey Testing: Forty-eight hr after the metabolic cage studies, tactile sensitivity was measured once per week for the duration of the study using von Frey nylon filaments (Stoelting Co., Wood Dale, Ill., USA) applied to the suprapublic and plantar hindpaw. The withdrawal threshold (using up-down method) was determined, with positive responses defined as sharp retractions, licking/scratching, or vocalizations."}, "[2]": {"system": "dynamin-related protein (DRP-1)", "test": "Western immunoblotting, DRP-1", "settings": "aged rats; oral 8-AG 5 mg/kg/day, 6 weeks", "protocol": "Western immunoblotting: One half of each bladder preparation was homogenized using Lysing Matrix D in a FastPrep 24 instrument (MP Biomedicals, Solon, Ohio) in HBSS (5 mM KCl, 0.3 mM KH2PO4, 138 mM NaCl, 4 mM NaHO3, 0.3 mM Na2HCO3, 0.3 mM Na2HPO4, 5.6 mM glucose and 10 mM Hepes, pH 7.4) containing complete protease inhibitor cocktail (1 tablet/10 ml, ROCHE®, Indianapolis, Ind.)) and phosphatase inhibitor cocktail (SIGMA®, 1:100). After centrifugation (13000 rpm; 15 min at 4° C.), the membrane protein fraction was prepared by suspending the membrane pellets in lysis buffer containing 0.3 M NaCl, 50 mM Tris-HCl (pH 7.6) and 0.5% Triton X-100 and the same concentration of protease inhibitors as above. The suspensions were incubated on ice and centrifuged (13000 rpm; 15 min at 4° C.). The protein concentrations of the combined supernatants were determined using the PIERCE® BCA protein assay (THERMO SCIENTIFIC®, Rockford, Ill.). […] As a loading control, total protein per sample was determined using Bio-Rad® Stain Free SDS-PAGE gel technology. UV-activated protein fluorescence was imaged on a CHEMIDOC® MP (BIO-RAD®). […] The volume (intensity) of each protein species was determined and normalized to total protein using Image Lab software (BIO-RAD®)."}, "[3]": {"system": "aged rats", "test": "Voiding analysis in metabolic cages, aged rats"}, "[4]": {"settings": "aged Fischer 344 rats, oral 8-AG 5 mg/kg/day, 6 weeks"}, "[5]": {"settings": "aged Fisher 344 rats, 8-AG 5 mg kg/day via drinking water, 1 month"}, "[6]": {"settings": "aged rats, intravesical 100 μM 8-AG plus 10 μM DEA-NONOate, daily infusion 3-6 weeks"}}, "note": "“Also recorded” adds a separate entry of the source.", "data": [{"compound": "Nc1nc2[nH]c(N)nc2c(=O)[nH]1", "note": "[8-AG, 8-Aminoguanine]", "values": [{"measurement": "abdominal response to tactile mechanical stimuli", "setting": "[1]; [4]", "value": "restored to a younger state"}, {"measurement": "somatic response to tactile mechanical stimuli", "setting": "[1]; [4]", "value": "restored to a younger state"}, {"measurement": "abdominal tactile mechanical sensitivity", "setting": "[1]; [5]", "value": "restored to a younger state; also recorded: reversed"}, {"measurement": "somatic tactile mechanical sensitivity", "setting": "[1]; [5]", "value": "restored to a younger state; also recorded: reversed"}, {"measurement": "abdominal tactile mechanical sensitivity", "setting": "[1]; [6]", "value": "increase in sensitivity; also recorded: improves"}, {"measurement": "somatic tactile mechanical sensitivity", "setting": "[1]; [6]", "value": "increase in sensitivity; also recorded: improves"}, {"measurement": "DRP-1 in bladder mucosa", "setting": "[2]", "value": "reversed or restored to levels similar to the younger state; also recorded: restored changes similar to a younger state"}, {"measurement": "intercontraction interval", "setting": "[3]; [4]", "value": "attenuates"}, {"measurement": "intercontraction interval", "setting": "[3]; [5]", "value": "attenuates"}]}]}
